Test results published in patent US20210262008A1, “METHOD OF PERSONALIZED TREATMENT FOR CARDIOMYOPATHY AND HEART FAILURE AND OTHER RELATED DISEASES BY MEASURING RENIN ACTIVITY, PRO-RENIN, PRO-RENIN RECEPTOR LEVELS IN BLOOD” (priority 2018, published 2021).
Like-named read-outs stand apart in the source and are kept apart here.

Legend:
[1] = system: mice; conditions: mouse, in vivo
Description: (§1) Dose calculations were based on an average consumption of 5 mL of water/day/mouse. […] The oral dose was chosen to closely mimic the human route of delivery, while not altering the blood pressure, associated with elevated plasma Ang II-aldosterone levels, given the low bioavailability of the drug in rodents. […] No issues with palatability or clinical dehydration were noted throughout the study as assessed by blinded husbandry and veterinary staff. […] The administration was started at 50 days of age to coincide with the previously identified timeline of increased renin activity and development of stage B HF in female DCM mice]. Aliskiren water was provided ad libitum throughout life. All untreated mice (WT and DCM+vehicle) received ad lib 3 ppm hyperchlorinated facility water via an automated watering system (Edstrom, Waterford, Wis., USA).

[2] = system: female mice with dilated cardiomyopathy (DCM); assay: Plasma Ang II, aldosterone and HF biomarkers by enzyme immunoassay in DCM mice at 90 days; type: in vivo, mouse; conditions: for plasma aldosterone levels: 100 mg/kg/day oral, 100 mg/kg/day
Source text: Mice: In the Examples 1-3 below, the mice used were all female littermates with or without dilated cardiomyopathy (DCM) on a C57BL/6 background. DCM is a major cause of HF, which is associated with pathological dilation of the heart ventricles and declines in heart contractile or systolic function. DCM mice express transgene dominant negative CREB transcription factor, specific to cardiomyocytes and develop a consistent progressive DCM and HF similar to humans. In female mice with DCM renal function remains within normal range up to the terminal HF stage, as measured by plasma BUN and creatinine. DCM mice (mCREBTg) are slightly hypotensive at 91 days of age compared to mCREB WT. mCREB mice were randomly assigned to experimental groups. Groups were denoted as WT (n=20), DCM (Control, n=28), and DCM+direct renin inhibitor treatment (+DRI, n=29). At 90-day censorship, dissected organs were weighed, and terminal blood was collected via cardiocentesis with EDTA-aprotinin syringes to prevent proteolysis of targeted proteins. The blood samples were centrifuged at 3000 rpm for 20 min at 4° C. Plasma samples were aliquoted and stored at −80° C. until analysis.
as §1
Enzyme Immunoassay: Plasma Ang II, aldosterone, atrial natriuretic peptide (N terminus-ANP), cyclic guanosine monophosphate (cGMP), neprilysin, and corin levels were measured by enzyme immunoassays according to the manufacturers' protocols (Phoenix Pharm. Inc., Burlingame, Calif., USA; Abcam Inc., Cambridge, Mass., USA; Enzo Life Sciences Inc., Farmingdale, N.Y., USA; Boster Biological Technology, Pleasanton, Calif., USA; USCN Life Science Inc., Houston, Tex., USA).

[3] = molecular target: T1, mouse renin (Mus musculus, UniProt P06281); assay: Plasma renin activity assay (FRET substrate) in plasma of treated DCM mice; type: in vivo; conditions: female DCM mice, 100 mg/kg/day orally in drinking water from 50 days of age, measured at 90 days, vs DCM control
T1 construct: from tissue; host or cells: plasma (terminal blood, cardiocentesis) of female DCM (mCREB transgenic) mice on a C57BL/6 background
T1 sequence (P06281 72-402): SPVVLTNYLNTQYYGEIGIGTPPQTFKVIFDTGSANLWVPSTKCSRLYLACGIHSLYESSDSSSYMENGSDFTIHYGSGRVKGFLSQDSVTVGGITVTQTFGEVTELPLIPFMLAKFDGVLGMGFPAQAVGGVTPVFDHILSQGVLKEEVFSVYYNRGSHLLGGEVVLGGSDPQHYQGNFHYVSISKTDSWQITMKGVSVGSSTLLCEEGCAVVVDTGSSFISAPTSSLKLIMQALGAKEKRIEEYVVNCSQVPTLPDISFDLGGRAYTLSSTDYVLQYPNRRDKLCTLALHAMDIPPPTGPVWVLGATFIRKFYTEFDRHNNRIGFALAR
Description: Plasma samples were aliquoted and stored at −80° C. until analysis.

[4] = system: female mice with dilated cardiomyopathy (DCM); assay: Echocardiography of DCM mice at 90 days of age; type: in vivo, mouse
[5] = system: blood pressure; conditions: 15-50 mg/kg/day via subcutaneous osmotic pumps, previous studies; cited from earlier work
[6] = system: female mice with dilated cardiomyopathy (DCM); assay: Kaplan-Meier survival of female DCM mice; type: in vivo, mouse
Source text: Mice: In the Examples 1-3 below, the mice used were all female littermates with or without dilated cardiomyopathy (DCM) on a C57BL/6 background. DCM is a major cause of HF, which is associated with pathological dilation of the heart ventricles and declines in heart contractile or systolic function. DCM mice express transgene dominant negative CREB transcription factor, specific to cardiomyocytes and develop a consistent progressive DCM and HF similar to humans. In female mice with DCM renal function remains within normal range up to the terminal HF stage, as measured by plasma BUN and creatinine. DCM mice (mCREBTg) are slightly hypotensive at 91 days of age compared to mCREB WT. mCREB mice were randomly assigned to experimental groups. […]
Dose calculations were based on an average consumption of 5 mL of water/day/mouse. […] No issues with palatability or clinical dehydration were noted throughout the study as assessed by blinded husbandry and veterinary staff. […]
Statistical Analysis: Statistical analyses were performed with GraphPad Prism 7.04 software (GraphPad Software, La Jolla, Calif., USA) using Student's t-test, one-way ANOVA, or two-way ANOVA with Tukey's multiple comparisons test (unless otherwise indicated) and Pearson's correlation. Survival was analyzed using Kaplan-Meier curves with the Mantel-Cox test. […]

[7] = orally in rats; cited from earlier work
[8] = in humans; cited from earlier work

With COCCCOc1cc(C[C@@H](C[C@H](N)[C@@H](O)C[C@H](C(=O)NCC(C)(C)C(N)=O)C(C)C)C(C)C)ccc1OC [aliskiren, aliskiren hemifumarate] the “palatability or clinical dehydration” value [1] was “No issues”, the “side effects / abnormal clinical observations” value ([1]; 100 mg/kg/day) was “no side effects or abnormal clinical observations” and the “plasma Ang II levels” value ([2]; female DCM mice, 100 mg/kg, DCM+DRI vs DCM+vehicle) was “no significant difference”. For the same compound, the plasma aldosterone levels ([2]; female DCM mice, vs DCM control) was “not modulated by treatment”, the plasma aldosterone levels ([2]; female DCM mice, vs DCM control, listed as DRI-aliskiren) was “no significant difference” and the ANP plasma levels ([2]; vs DCM control) was “not affected”. For the same compound, the corin plasma levels ([2]; vs DCM control) was “not affected”, the “plasma cGMP levels” value ([2]; vs DCM control) was “non-significant trend toward lower levels” and the plasma neprilysin levels ([2]; vs DCM control, P<0.001, listed as DRI) was “normalized plasma neprilysin levels”. For the same compound, the plasma neprilysin levels ([2]; vs DCM control, P<0.001, listed as DRI-aliskiren) was “lowered neprilysin to WT levels”, the “plasma renin activity (PRA)” value [3] was “significantly reduced elevated PRA to normal levels” and the “plasma renin activity (PRA)” value ([3]; listed as DRI-aliskiren) was “normalized pathological renin activity”. For the same compound, the heart rate ([4]; anesthetized, control 419±10 bpm, P<0.01) was 469±14 bpm, the “cardiac output (CO mL/min)” value ([4]; vs control DCM mice, P<0.01) was “improved” and the “systolic function, ejection fraction (EF %)” value ([4]; vs control DCM mice, P<0.05) was “improved”. For the same compound, the “systolic function, fractional shortening (FS %)” value ([4]; vs control DCM mice, P<0.05) was “improved”, the blood pressure [5] was “no alteration in blood pressure” and the median survival ([6]; 100 mg/kg/day oral, control 103 days, P<0.05) was 110 days. For the same compound, the “outlived the control mice (survival gain)” value ([6]; median survival vs control) was 7%, the bioavailability [7] was 2.6% and the bioavailability [8] was “low”.
